Measured values published in paper PMC6843445, “Pharmacokinetic Properties of Fluorescently Labelled Hydroxypropyl-Beta-Cyclodextrin” (Biomolecules, 2019).

Columns and labels:
[1] = Tissue accumulation in the supernatant of tissue homogenates ex vivo; set-up: species or system BALB/c male mice; conditions: mice, i.v., after 60 min
Method: After the last blood sample collection, six animals were anaesthetized, and their blood vessels were perfused by warm saline solution. Finally, all mice were sacrificed, and the organs were removed from the six saline-perfused mice for further analysis. The collected organs (livers, lungs, kidneys, spleens, hearts and brains) were homogenized by adding 0.8 mL saline solution and the homogenates were centrifuged at 10,000 rpm for 20 min at 4 °C. From each sample, 0.1 mL of supernatant was placed into black 96-well plates and the fluorescence intensities were measured by microplate reader as described above. The lower limit of quantification of FITC-HPBCD in mouse plasma and organ homogenates was 0.25 µg/mL. The protein content of the tissue samples was determined by PierceTM BCA protein assay (Thermo Scientific, Rockford, IL, USA) according to the manufacturer’s instruction. FITC-HPBCD content of the samples was normalized to the tissue protein content. The animals were maintained in accordance with the Guidelines for the Care and Use of Laboratory Animals; experiments were approved by the Animal Care Committee of the University of Debrecen (permission no. 12/2014).

[2] = In vivo and ex vivo fluorescence imaging; set-up: species or system Male BALB/c mice; conditions: mice, i.v.
Method: Male BALB/c mice (22–25 g) were bred and maintained in normal watering and feeding conditions in a Laboratory Animal Husbandry Facility, equipped with IVC (individually ventilated cages), controlled atmosphere-temperature, humidity and lighting (Vasile Goldis Western University, Arad, Romania). All experimental procedures were performed in compliance with the appropriate laws and institutional guidelines, and were approved by the Institutional Ethics Committee of Vasile Goldiș Western University of Arad (Arad, Romania). FITC-HPBCD (0.5 and 2.5 mg), dissolved in 0.1 mL saline solution was injected into the femoral vein of mice under general anaesthesia. Maintaining the surgical plane of anesthesia, mice were placed into an in vivo imaging system (In-vivo Xtreme, Carestream, Carestream Health Inc. USA). At 5, 15, 30, 45 and 60 min, fluorescence and X-ray images were recorded of the animals. After 30 or 60 min, the blood vessels of some animals were perfused by warm saline solution and their organs (livers, lungs, kidneys, spleens and brains) were removed for ex vivo imaging (excitation: 480 nm, emission: 535 nm).

[3] = In vivo pharmacokinetic investigation, plasma FITC-HPBCD after i.v. administration; set-up: species or system BALB/c male mice; conditions: for CL: clearance = terminal ke × Vd1; for CL / ke (1–15 min) / t1/2 (1–15 min) / t1/2 (15–30 min) / t1/2 (30–60 min) / ke (15–30 min) / t1/2 (15–45 min) / t1/2 (45–60 min) / ke (15–45 min) / kc (1–15 min) / ke (30–60 min) / ke (45–60 min) / Vd: dose 250 µg; for ke (1–15 min): elimination rate constant; for ke (1–15 min) / ke (15–30 min) / ke (15–45 min) / kc (1–15 min) / ke (30–60 min) / ke (45–60 min): in min-1 (unit assumed); for t1/2 (1–15 min) / t1/2 (15–30 min) / t1/2 (30–60 min) / t1/2 (15–45 min) / t1/2 (45–60 min): in min; for Vd at 1 min of sampling: n = 6; for kc (1–15 min): rate constant of compartmentalization; for ke (30–60 min) / ke (45–60 min): terminal phase; for Vd: volume of distribution at 1 min
Method: Twelve BALB/c male mice (23–25 g) were involved in the study. 0.25 mg FITC-HPBCD, dissolved in 0.2 mL saline solution was injected into the lateral tail vein of each mouse. Blood samples were collected from the orbital sinus from six mice after 1, 15, 30 and 60 min and at 1, 15, 45 and 60 min from other six mice by the same sampling method. Blood samples were incubated for 1 h at 37 °C and centrifuged for 8 min at 1700 rpm to separate blood plasma. Aliquots of plasma from the samples were placed into black 96-well plates and their fluorescence intensities were measured by a FLUOstar Optima microplate reader (BMG LABTECH, Offenburg, Germany; 492 nm excitation and 520 nm emission wavelengths) and the plasma FITC-HPBCD concentrations were calculated.
The two compartment model was characterized by the following equations:(3) Ct=C^′×e^−kc×t+C^″×e^−ke×t (4) C0=C^′+C^″ where ke is the elimination rate constant of FITC-HPBCD determined from data of the terminal phase (ke(30-60 min) or ke(45-60 min)); t1/2 is the half-life of FITC-HPBCD calculated from the corresponding ke values; CL is the clearance of FITC-HPBCD; Vd is the volume of distribution of FITC-HPBCD determined from data related to the first minute (Vd1); Ct is the plasma concentration of FITC-HPBCD at “t”; C′ and C″ are the two components of the initial plasma concentration of FITC-HPBCD representing the amount of FITC-HPBCD that will be compartmentalized and eliminated, respectively.

[4] = system: HUVECs; assay: Intracellular FITC-HPBCD accumulation, fluorescence microscopy; type: cell-based, Human; conditions: 50 µM, 30 min, 37 °C
Method: Human umbilical vein endothelial cells (HUVECs) were removed from umbilical veins by exposure to dispase (0.2% in Hank’s balanced salt solution) and cultured in gelatin-coated flasks in medium 199 containing 15% foetal bovine serum (FBS), antibiotics, L-glutamine, sodium pyruvate and endothelial cell growth supplement from bovine pituitary. For the fluorescent microscopic experiments, cells were seeded onto gelatin-coated round glass coverslips and maintained in medium until the treatments.
HUVECs, cultured on gelatin-coated glass coverslips were washed twice with Hank’s Balanced Salt Solution (HBSS) and treated with 50 µM FITC-HPBCD for 30 min at 37 °C. Cells were washed five times with ice-cold HBSS and fixed with 3% paraformaldehyde for 15 min. After fixation cells were washed with HBSS and the nuclei were stained with Hoechst 33,342 at the final concentration of 300 nM. Cells were washed again and mounted on microscope slides. […] Images were analyzed with ZEN 2012 v.1.1.0.0. software (Carl Zeiss Microscopy GmbH, Göttingen, Germany)

[5] = mice, i.v., Group F, sampling 1, 15, 30 and 60 min
[6] = mice, i.v., Group F, sampling 1, 15, 45 and 60 min
[7] = mice, i.v., Group NF, sampling 1, 15, 30 and 60 min
[8] = mice, i.v., Group NF, sampling 1, 15, 45 and 60 min

fluorescence intensities in the supernatant of liver, lung, spleen, heart and brain homogenates [1]: not elevated | fluorescence intensity in the supernatant of kidney homogenates ([1]; normalized to tissue protein content): significant fluorescence | ex vivo fluorescence of lungs vs untreated control, separated imaging ([2]; 0.5 mg): higher ex vivo fluorescence | ex vivo fluorescence of kidneys ([2]; 0.5 mg, after 30 min): relative higher fluorescence | ex vivo fluorescence of kidneys ([2]; 2.5 mg/animal): especially high fluorescence | ex vivo fluorescence of lung ([2]; 2.5 mg/animal): elevated intensity | ex vivo fluorescence of organs vs control ([2]; 2.5 mg/animal, every organ (livers, lungs, kidneys, spleens, brains)): higher fluorescence intensities | in vivo fluorescence of the bladder ([2]; 30 and 45 min, urinated out at 60 min): accumulated in the bladder | ex vivo fluorescence of brains vs untreated ([2]; after 60 min): no difference | CL [3, 5]: 0.11 ± 0.15 mL/min | CL [3, 6]: 0.23 ± 0.08 mL/min | CL [3, 7]: 0.25 ± 0.15 mL/min | CL [3, 8]: 0.69 ± 0.38 mL/min | ke (1–15 min) [3, 5]: 0.092 ± 0.023 | ke (1–15 min) [3, 6]: 0.095 ± 0.017 | ke (1–15 min) [3, 7]: 0.115 ± 0.017 | ke (1–15 min) [3, 8]: 0.107 ± 0.006 | Vd at the first minute, average ([3]; mice, i.v., all animals n = 12): 5.7 ± 1.34 mL | t1/2 (1–15 min) ([3]; mice, i.v., Group F (followed two-compartment model), sampling 1, 15, 30 and 60 min): 7.82 ± 1.48 | t1/2 (15–30 min) [3, 5]: 7.54 ± 0.52 | t1/2 (30–60 min) [3, 5]: 122.3 ± 109.4 | ke (15–30 min) [3, 5]: 0.092 ± 0.007 | t1/2 (1–15 min) [3, 6]: 7.5 ± 1.13 | t1/2 (15–45 min) [3, 6]: 13.55 ± 1.45 | t1/2 (45–60 min) [3, 6]: 20.06 ± 3.89 | ke (15–45 min) [3, 6]: 0.052 ± 0.007 | t1/2 (1–15 min) ([3]; mice, i.v., Group NF (did not follow model), sampling 1, 15, 30 and 60 min): 6.13 ± 0.78 | t1/2 (15–30 min) [3, 7]: 35.01 ± 10.15 | t1/2 (30–60 min) [3, 7]: 16.61 ± 7.12 | ke (15–30 min) [3, 7]: 0.022 ± 0.009 | t1/2 (1–15 min) [3, 8]: 6.50 ± 0.31 | t1/2 (15–45 min) [3, 8]: 13.36 ± 3.05 | t1/2 (45–60 min) [3, 8]: 8.99 ± 4.54 | ke (15–45 min) [3, 8]: 0.054 ± 0.013 | Vd at 1 min of sampling ([3]; mice, i.v., group following the model): 5.55 ± 0.98 mL | Vd at 1 min of sampling ([3]; mice, i.v., group not following the model): 5.85 ± 1.72 mL | i.v. administered FITC-HPBCD eliminated from mice within 60 min ([3]; mouse, in vivo, iv): 96.58 ± 2.6% | kc (1–15 min) [3, 5]: 0.109 ± 0.026 | kc (1–15 min) [3, 6]: 0.142 ± 0.033 | ke (30–60 min) [3, 5]: 0.022 ± 0.029 | ke (45–60 min) [3, 6]: 0.036 ± 0.008 | ke (30–60 min) [3, 7]: 0.049 ± 0.020 | ke (45–60 min) [3, 8]: 0.095 ± 0.044 | Vd [3, 5]: 4.86 ± 0.21 mL | Vd [3, 6]: 6.25 ± 0.77 mL | Vd [3, 7]: 4.70 ± 1.27 mL | Vd [3, 8]: 7.01 ± 0.81 mL
Substance: 6-deoxy-6-[(5/6)-fluoresceinylthioureido]-(2-hydroxypropyl)-β-cyclodextrin [FITC-HPBCD]
in vivo whole-body fluorescence distribution ([2]; 0.5 mg and 2.5 mg/animal, images at 5-60 min): distributed over the entire body of the animals | ex vivo fluorescence of brains vs untreated ([2]; both doses (0.5 and 2.5 mg), after 30 min, separated examination): higher fluorescence than the untreated ones | cellular localization by fluorescence microscopy [4]: detected in the cytoplasm of HUVECs in small green vesicles
